SMILES strings stand for the structures. In brackets after ≈: the same amount, converted by molar mass.

Common to all, as to type: functional
The subject of one assay is Enterococcus faecium. Nature of the assay: Antibacterial activity against Enterococcus faecium by broth microdilution method.
For another assay, the system named is Enterococcus faecalis. Nature of the assay: Antibacterial activity against Enterococcus faecalis by broth microdilution method.
Another assay relates to Bacteroides fragilis. Nature of the assay: Antibacterial activity against Bacteroides fragilis by broth microdilution method.
The next assay concerns Streptococcus pneumoniae. Nature of the assay: Antibacterial activity against Streptococcus pneumoniae by broth microdilution method.
Assay [1] deals with Staphylococcus aureus. Nature of the assay: Antibacterial activity against macrolide, licosamide and streptogramin resistant Staphylococcus aureus by broth microdilution method.
Assay [2] has as its system Staphylococcus aureus. Nature of the assay: Antibacterial activity against Staphylococcus aureus by broth microdilution method.
Assay [3] deals with Staphylococcus aureus. Nature of the assay: Antibacterial activity against Staphylococcus aureus Smith infected iv dosed mouse septicemia model.
The subject of the next assay is Escherichia coli. Nature of the assay: Inhibition of protein synthesis in Escherichia coli by transcription/translation inhibition assay.
The subject of assay [4] is Staphylococcus aureus. Nature of the assay: Antibacterial activity against Staphylococcus aureus Smith infected po dosed mouse septicemia model.

As to `CS[C@H]1O[C@H]([C@H](NC(=O)[C@H]2NC[C@@H]2CCC(F)F)[C@H](C)Cl)[C@H](O)[C@H](O)[C@H]1O`, the MIC against Enterococcus faecium is 0.5 µg/mL (≈ 1.15 µM); in the assay with Enterococcus faecalis, 2 µg/mL (≈ 4.62 µM); with Bacteroides fragilis, 1 µg/mL (≈ 2.31 µM); against Streptococcus pneumoniae, 0.125 µg/mL (≈ 0.289 µM); with Staphylococcus aureus [1], above 4 µg/mL; with Staphylococcus aureus [2], 1 µg/mL (≈ 2.31 µM).
Take `CS[C@H]1O[C@H]([C@H](NC(=O)[C@H]2NC[C@@H]2CCC2CCC2)[C@H](C)Cl)[C@H](O)[C@H](O)[C@H]1O`: the MIC is 0.25 µg/mL (≈ 0.572 µM) in the assay with Enterococcus faecium; 0.25 µg/mL (≈ 0.572 µM) with Enterococcus faecalis; 0.25 µg/mL (≈ 0.572 µM) with Bacteroides fragilis; 0.125 µg/mL (≈ 0.286 µM) in the assay with Streptococcus pneumoniae; above 4 µg/mL with Staphylococcus aureus [1]; 0.25 µg/mL (≈ 0.572 µM) against Staphylococcus aureus [2].
Take `CS[C@H]1O[C@H]([C@H](NC(=O)[C@H]2NC[C@@H]2CCC2CC2)[C@H](C)Cl)[C@H](O)[C@H](O)[C@H]1O`: the minimal inhibitory concentration (MIC) against Enterococcus faecium is 0.125 µg/mL (≈ 0.296 µM); in the assay on Enterococcus faecalis, 0.25 µg/mL (≈ 0.591 µM); in the assay with Bacteroides fragilis, 0.25 µg/mL (≈ 0.591 µM); in the assay on Streptococcus pneumoniae, 0.125 µg/mL (≈ 0.296 µM); against Staphylococcus aureus [1], above 4 µg/mL; in the assay with Staphylococcus aureus [2] it was 0.25 µg/mL (≈ 0.591 µM). In addition, the 50% effect level with Staphylococcus aureus [3] (ED50) was put at a dose of 3 mg/kg. In the assay on Escherichia coli, this molecule came in with an IC50 of 7.8 µM.
Consider `CCCC[C@H]1CN(CCO)[C@@H]1C(=O)N[C@@H]([C@H]1O[C@H](SC)[C@H](O)[C@@H](O)[C@H]1O)[C@H](C)Cl`, for which the MIC against Enterococcus faecium was 0.25 µg/mL (≈ 0.549 µM); against Enterococcus faecalis it was 0.5 µg/mL (≈ 1.1 µM); in the assay on Bacteroides fragilis it was 0.5 µg/mL (≈ 1.1 µM); in the assay with Streptococcus pneumoniae, 0.125 µg/mL (≈ 0.275 µM); in the assay on Staphylococcus aureus [1] it was above 8 µg/mL; against Staphylococcus aureus [2], 0.5 µg/mL (≈ 1.1 µM).
Regarding `CS[C@H]1O[C@H]([C@H](NC(=O)[C@H]2NC[C@@H]2CCCC2CC2)[C@H](C)Cl)[C@H](O)[C@H](O)[C@H]1O`, the MIC is 0.125 µg/mL (≈ 0.286 µM) against Enterococcus faecium; 0.25 µg/mL (≈ 0.572 µM) in the assay on Enterococcus faecalis; 0.25 µg/mL (≈ 0.572 µM) in the assay on Bacteroides fragilis; 0.06 µg/mL (≈ 0.137 µM) in the assay on Streptococcus pneumoniae; above 4 µg/mL against Staphylococcus aureus [1]; 0.125 µg/mL (≈ 0.286 µM) in the assay on Staphylococcus aureus [2]. It took a dose of 3.1 mg/kg to reach the 50% effect level in the assay with Staphylococcus aureus [3] (ED50). Besides, half-maximal inhibition in the assay on Escherichia coli (IC50) required 2.75 µM.
`CCCC[C@H]1CN(C)[C@@H]1C(=O)N[C@@H]([C@H]1O[C@H](SC)[C@H](O)[C@@H](O)[C@H]1O)[C@H](C)Cl`: the MIC with Enterococcus faecium was 1 µg/mL (≈ 2.35 µM); in the assay on Enterococcus faecalis, 2 µg/mL (≈ 4.71 µM); against Bacteroides fragilis it was 0.125 µg/mL (≈ 0.294 µM); in the assay with Streptococcus pneumoniae, 0.5 µg/mL (≈ 1.18 µM); against Staphylococcus aureus [1] it was above 4 µg/mL; against Staphylococcus aureus [2] it was 1 µg/mL (≈ 2.35 µM).
Consider `CCC[C@H]1CN[C@@H]1C(=O)N[C@@H]([C@H]1O[C@H](SC)[C@H](O)[C@@H](O)[C@H]1O)[C@H](C)Cl`, for which the MIC against Enterococcus faecium is 0.5 µg/mL (≈ 1.26 µM); with Enterococcus faecalis, 0.5 µg/mL (≈ 1.26 µM); against Bacteroides fragilis, 0.5 µg/mL (≈ 1.26 µM); in the assay with Streptococcus pneumoniae, 0.125 µg/mL (≈ 0.315 µM); against Staphylococcus aureus [1], above 8 µg/mL; in the assay on Staphylococcus aureus [2], 0.5 µg/mL (≈ 1.26 µM). The same molecule registered an IC50 with Escherichia coli of 12.8 µM.
With `CCCCC[C@H]1CN[C@@H]1C(=O)N[C@@H]([C@H]1O[C@H](SC)[C@H](O)[C@@H](O)[C@H]1O)[C@H](C)Cl`, the MIC was 0.125 µg/mL (≈ 0.294 µM) in the assay on Enterococcus faecium; 0.25 µg/mL (≈ 0.588 µM) with Enterococcus faecalis; 0.125 µg/mL (≈ 0.294 µM) with Bacteroides fragilis; 0.03 µg/mL (≈ 0.0706 µM) against Streptococcus pneumoniae; above 8 µg/mL against Staphylococcus aureus [1]; 0.06 µg/mL (≈ 0.141 µM) in the assay on Staphylococcus aureus [2]. The ED50 in the assay on Staphylococcus aureus [3] is 1.7 mg/kg; with Staphylococcus aureus [4], 28 mg/kg. Half-maximal inhibition with Escherichia coli (IC50) was put at 1.13 µM.
Regarding `CS[C@H]1O[C@H]([C@H](NC(=O)[C@H]2NC[C@@H]2CC2CC2)[C@H](C)Cl)[C@H](O)[C@H](O)[C@H]1O`, the MIC in the assay on Enterococcus faecium is 0.5 µg/mL (≈ 1.22 µM); with Enterococcus faecalis, 1 µg/mL (≈ 2.45 µM); against Bacteroides fragilis, 0.5 µg/mL (≈ 1.22 µM); against Streptococcus pneumoniae, 0.125 µg/mL (≈ 0.306 µM); against Staphylococcus aureus [1] it was above 8 µg/mL; against Staphylococcus aureus [2], 0.5 µg/mL (≈ 1.22 µM). Moreover, in the assay with Escherichia coli, 11.1 µM corresponded to half-maximal inhibition (IC50).
In the case of `CS[C@H]1O[C@H]([C@H](NC(=O)[C@H]2NC[C@@H]2CCCC2CCC2)[C@H](C)Cl)[C@H](O)[C@H](O)[C@H]1O`, the MIC was 0.06 µg/mL (≈ 0.133 µM) against Enterococcus faecium; 0.06 µg/mL (≈ 0.133 µM) in the assay on Enterococcus faecalis; 0.25 µg/mL (≈ 0.554 µM) against Bacteroides fragilis; 0.016 µg/mL (≈ 0.0355 µM) against Streptococcus pneumoniae; above 4 µg/mL in the assay on Staphylococcus aureus [1]; 0.03 µg/mL (≈ 0.0665 µM) in the assay with Staphylococcus aureus [2]. The same molecule yielded an ED50 in the assay on Staphylococcus aureus [3] above 10 mg/kg. This molecule came in with an IC50 in the assay on Escherichia coli of 2.44 µM.
Regarding `CCCC[C@H]1CN[C@@H]1C(=O)N[C@@H]([C@H]1O[C@H](SC)[C@H](O)[C@@H](O)[C@H]1O)[C@H](C)Cl`, the MIC is 0.125 µg/mL (≈ 0.304 µM) in the assay with Enterococcus faecium; 0.125 µg/mL (≈ 0.304 µM) in the assay with Enterococcus faecalis; 0.125 µg/mL (≈ 0.304 µM) in the assay on Bacteroides fragilis; 0.06 µg/mL (≈ 0.146 µM) with Streptococcus pneumoniae; above 8 µg/mL in the assay on Staphylococcus aureus [1]; 0.125 µg/mL (≈ 0.304 µM) with Staphylococcus aureus [2]. Further, the ED50 in the assay on Staphylococcus aureus [3] was 1.1 mg/kg; with Staphylococcus aureus [4], 10.8 mg/kg. In the assay with Escherichia coli, this molecule showed an IC50 of 0.36 µM.
For `CS[C@H]1O[C@H]([C@H](NC(=O)[C@H]2NC[C@@H]2CCC(C)C)[C@H](C)Cl)[C@H](O)[C@H](O)[C@H]1O`, the MIC was 0.5 µg/mL (≈ 1.18 µM) with Enterococcus faecium; 0.5 µg/mL (≈ 1.18 µM) in the assay on Enterococcus faecalis; 0.5 µg/mL (≈ 1.18 µM) in the assay with Bacteroides fragilis; 0.125 µg/mL (≈ 0.294 µM) against Streptococcus pneumoniae; above 8 µg/mL against Staphylococcus aureus [1]; 0.5 µg/mL (≈ 1.18 µM) against Staphylococcus aureus [2]. For the same molecule, the IC50 in the assay on Escherichia coli was determined as 15.5 µM.
Regarding `CCC[C@@H]1C[C@@H](C(=O)N[C@@H]([C@H]2O[C@H](SC)[C@H](O)[C@@H](O)[C@H]2O)[C@H](C)Cl)N(C)C1` [CLINDAMYCIN], the MIC against Enterococcus faecium is 0.125 µg/mL (≈ 0.294 µM); in the assay on Enterococcus faecalis, 0.25 µg/mL (≈ 0.588 µM); in the assay with Streptococcus pneumoniae, 0.06 µg/mL (≈ 0.141 µM); with Staphylococcus aureus [1], above 8 µg/mL; in the assay on Staphylococcus aureus [2] it was 0.125 µg/mL (≈ 0.294 µM). For the same molecule, the ED50 in the assay on Staphylococcus aureus [3] was determined as 2.8 mg/kg; in the assay on Staphylococcus aureus [4], 19.9 mg/kg.

These data come from ChEMBL document CHEMBL1144730, “Novel antibacterial azetidine lincosamides” (Bioorg Med Chem Lett, 2008).
